Laboratory results from patent EP4741392A1, “1H-PYRAZOLO[4,3-C]PYRIDINE COMPOUND, AND COMPOSITION THEREOF AND USE THEREOF” (Shenzhen TargetRx Co., Ltd., priority 2023, dated 2025).

Columns and labels:
Type in all cases: biochemical
ITK = target: T1, ITK (Homo sapiens, UniProt Q08881); assay: Kinase activity inhibition assay (HTRF TK Kit), selectivity
T1 construct: purchased Carna 08-181
T1 sequence (Q08881 1-620): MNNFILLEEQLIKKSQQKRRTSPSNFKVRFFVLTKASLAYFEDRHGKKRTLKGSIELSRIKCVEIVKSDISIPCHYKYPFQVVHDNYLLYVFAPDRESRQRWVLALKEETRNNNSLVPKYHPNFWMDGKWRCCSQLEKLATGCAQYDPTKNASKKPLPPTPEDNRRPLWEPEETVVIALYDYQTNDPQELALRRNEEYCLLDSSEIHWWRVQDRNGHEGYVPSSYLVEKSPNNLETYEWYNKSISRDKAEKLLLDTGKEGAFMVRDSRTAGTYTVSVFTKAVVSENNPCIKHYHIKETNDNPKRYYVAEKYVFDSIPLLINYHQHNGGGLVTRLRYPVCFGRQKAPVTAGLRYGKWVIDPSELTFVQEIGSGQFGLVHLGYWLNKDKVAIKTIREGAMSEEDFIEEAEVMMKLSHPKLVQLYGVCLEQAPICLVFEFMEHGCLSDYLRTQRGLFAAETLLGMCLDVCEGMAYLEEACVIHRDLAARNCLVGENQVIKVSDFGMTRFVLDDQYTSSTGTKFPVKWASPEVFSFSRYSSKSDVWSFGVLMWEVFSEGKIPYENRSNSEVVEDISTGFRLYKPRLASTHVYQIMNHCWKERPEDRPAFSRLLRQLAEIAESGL
In short: (§1)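 Cmpd + substrate/ATP + kinase, assembled on ice, shaken 30 s, RT reaction; detection mix (SA-XL665 + TK Ab-cryptate) 1 h RT; 665/620 ratio. Controls: no-kinase blank, kinase + 1% DMSO. IC50 via 4-parameter logistic fit of % inhibition vs log[cmpd].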

TEC = target: T2, TEC (Homo sapiens, UniProt P42680); assay: as above
T2 construct: purchased Carna 08-182
T2 sequence (P42680 1-631): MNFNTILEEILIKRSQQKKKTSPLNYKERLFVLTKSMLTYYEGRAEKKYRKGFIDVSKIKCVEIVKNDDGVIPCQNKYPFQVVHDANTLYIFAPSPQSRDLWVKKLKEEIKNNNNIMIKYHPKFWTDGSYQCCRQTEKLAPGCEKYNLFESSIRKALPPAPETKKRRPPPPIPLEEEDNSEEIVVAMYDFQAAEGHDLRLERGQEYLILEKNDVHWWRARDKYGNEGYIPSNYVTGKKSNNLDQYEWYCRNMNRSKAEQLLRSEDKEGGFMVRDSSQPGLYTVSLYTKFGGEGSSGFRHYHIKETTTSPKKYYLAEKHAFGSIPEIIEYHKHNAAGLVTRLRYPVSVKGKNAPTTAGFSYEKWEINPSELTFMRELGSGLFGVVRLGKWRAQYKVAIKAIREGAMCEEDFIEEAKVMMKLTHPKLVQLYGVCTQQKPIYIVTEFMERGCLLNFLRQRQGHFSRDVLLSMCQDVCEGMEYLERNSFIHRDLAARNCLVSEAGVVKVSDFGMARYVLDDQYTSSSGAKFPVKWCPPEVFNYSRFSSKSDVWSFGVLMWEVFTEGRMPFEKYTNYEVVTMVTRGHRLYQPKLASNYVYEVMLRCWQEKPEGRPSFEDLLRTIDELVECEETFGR
In short: as §1

EGFR = target: T3, EGFR (Homo sapiens, UniProt P00533); assay: as above
T3 construct: purchased Carna 08-115
T3 sequence (P00533 669-1210 limits assumed): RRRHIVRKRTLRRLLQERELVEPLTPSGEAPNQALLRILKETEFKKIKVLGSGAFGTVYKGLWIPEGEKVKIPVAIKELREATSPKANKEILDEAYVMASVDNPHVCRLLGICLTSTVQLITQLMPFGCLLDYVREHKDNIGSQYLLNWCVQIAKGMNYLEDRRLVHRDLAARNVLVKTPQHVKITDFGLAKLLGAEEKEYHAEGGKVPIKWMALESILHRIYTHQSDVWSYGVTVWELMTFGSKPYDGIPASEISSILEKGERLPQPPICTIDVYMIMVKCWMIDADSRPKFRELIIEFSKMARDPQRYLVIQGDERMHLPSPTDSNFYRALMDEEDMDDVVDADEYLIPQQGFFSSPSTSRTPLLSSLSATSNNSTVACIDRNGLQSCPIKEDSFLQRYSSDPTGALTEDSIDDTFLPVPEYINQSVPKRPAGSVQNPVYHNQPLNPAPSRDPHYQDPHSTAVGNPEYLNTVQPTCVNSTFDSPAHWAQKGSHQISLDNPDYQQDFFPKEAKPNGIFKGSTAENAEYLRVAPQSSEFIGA
In short: as §1

BTK T474I = target: T4, BTK T474I (Homo sapiens, UniProt Q06187, T474I); assay: Kinase activity inhibition assay (HTRF TK Kit)
T4 construct: purchased SignalChem B10-12HH
T4 sequence (Q06187 whole entry T474I): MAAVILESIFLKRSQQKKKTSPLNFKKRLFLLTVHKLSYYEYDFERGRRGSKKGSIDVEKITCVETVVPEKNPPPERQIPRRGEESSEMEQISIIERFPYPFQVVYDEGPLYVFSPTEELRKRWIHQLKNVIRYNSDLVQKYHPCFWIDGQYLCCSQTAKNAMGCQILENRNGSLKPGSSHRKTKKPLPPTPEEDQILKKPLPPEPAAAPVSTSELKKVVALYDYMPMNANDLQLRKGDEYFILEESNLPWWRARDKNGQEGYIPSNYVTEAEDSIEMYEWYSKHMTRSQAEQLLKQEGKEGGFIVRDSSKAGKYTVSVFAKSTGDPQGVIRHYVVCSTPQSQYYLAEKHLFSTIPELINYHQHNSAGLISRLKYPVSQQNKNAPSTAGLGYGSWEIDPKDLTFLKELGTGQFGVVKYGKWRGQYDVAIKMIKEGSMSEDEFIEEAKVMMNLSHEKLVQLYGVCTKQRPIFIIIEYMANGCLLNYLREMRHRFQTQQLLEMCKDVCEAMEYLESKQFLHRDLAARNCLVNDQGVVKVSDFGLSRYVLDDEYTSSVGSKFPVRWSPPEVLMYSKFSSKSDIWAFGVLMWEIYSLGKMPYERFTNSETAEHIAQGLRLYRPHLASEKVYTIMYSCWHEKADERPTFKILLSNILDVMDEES
In short: as §1

BTK kinase = target: T5, BTK kinase (Homo sapiens, UniProt Q06187); assay: Kinase activity inhibition assay (HTRF TK Kit)
T5 construct: purchased Invitrogen PV3587
T5 sequence (Q06187 whole entry): as the sequence (Q06187 whole entry T474I) above, with I474T counted along it
In short: as §1

BTK C481S = target: T6, BTK C481S (Homo sapiens, UniProt Q06187, C481S); assay: Kinase activity inhibition assay (HTRF TK Kit)
T6 construct: purchased Carna 08-547
T6 sequence (Q06187 whole entry C481S): as the sequence (Q06187 whole entry T474I) above, with I474T, C481S counted along it
In short: as §1

**Q.** How did the IC50 (ITK) turn out when CCOC(=O)c1cnc2cc(-c3cnc(-c4ccc(CNC(=O)c5cc(F)ccc5OC)cc4)c4c(N)n[nH]c34)nn2c1 [Example 45, ethyl 2-(3-amino-4-(4-((5-fluoro-2-methoxybenzoylamino)methyl)phenyl)-1H-pyrazolo[4,3-c]pyridin-7-yl)pyrazolo[1,5-a]pyrimidine-6-carboxylate] was run?
**A.** Its IC50 is greater than 500 nM.

**Q.** And the IC50 (TEC)?
**A.** Its IC50 is 50 to 500 nM.

**Q.** What about the IC50 (EGFR) of the same molecule?
**A.** The IC50 was 50 to 500 nM.

**Q.** What about the IC50 (BTK T474I) of the same molecule?
**A.** The IC50 was greater than 500 nM.

**Q.** And the IC50 (BTK kinase)?
**A.** The IC50 was 5 to 50 nM.

**Q.** What about the IC50 (BTK C481S) of the same molecule?
**A.** Its IC50 is 5 to 50 nM.

**Q.** Which IC50 (ITK) does the source give for COc1ccc(F)cc1C(=O)NCc1ccc(-c2ncc(-c3ccn4nccc4n3)c3[nH]nc(N)c23)cc1 [Example 46, N-(4-(3-amino-7-(pyrazolo[1,5-a]pyrimidin-5-yl)-1H-pyrazolo[4,3-c]pyridin-4-yl)benzyl)-5-fluoro-2-methoxybenzamide] here?
**A.** Its IC50 is greater than 500 nM.

**Q.** And the IC50 (TEC)?
**A.** The IC50 was 5 to 50 nM.

**Q.** What about the IC50 (EGFR) of the same molecule?
**A.** The IC50 was 5 to 50 nM.

**Q.** What about the IC50 (BTK T474I) of the same molecule?
**A.** Its IC50 is 50 to 500 nM.

**Q.** And the IC50 (BTK kinase)?
**A.** Its IC50 is 1 to 5 nM.

**Q.** And the IC50 (BTK C481S)?
**A.** The IC50 was 1 to 5 nM.

**Q.** What does the source list for COc1ccc(F)cc1C(=O)NCc1ccc(-c2ncc(-c3ccc4cn[nH]c4n3)c3[nH]nc(N)c23)cc1 [Example 47, N-(4-(3-amino-7-(1H-pyrazolo[3,4-b]pyridin-6-yl)-1H-pyrazolo[4,3-c]pyridin-4-yl)benzyl)-5-fluoro-2-methoxybenzamide]?
**A.** IC50 (ITK): > 500 nM; IC50 (TEC): 5 to 50 nM; IC50 (EGFR): 50 to 500 nM; IC50 (BTK T474I): 50 to 500 nM; IC50 (BTK kinase): 1 to 5 nM; IC50 (BTK C481S): 1 to 5 nM

**Q.** For COc1ccc(F)cc1C(=O)NCc1ccc(-c2ncc(-c3ccc(C(F)F)cn3)c3[nH]nc(N)c23)cc1 [Example 48, N-(4-(3-amino-7-(5-(difluoromethyl)pyridin-2-yl)-1H-pyrazolo[4,3-c]pyridin-4-yl)benzyl)-5-fluoro-2-methoxybenzamide], which IC50 (ITK) is on record?
**A.** Its IC50 is 50 to 500 nM.

**Q.** What about the IC50 (TEC) of the same molecule?
**A.** The IC50 was 5 to 50 nM.

**Q.** What about the IC50 (EGFR) of the same molecule?
**A.** The IC50 was 50 to 500 nM.

**Q.** What about the IC50 (BTK T474I) of the same molecule?
**A.** The IC50 was 5 to 50 nM.

**Q.** What about the IC50 (BTK kinase) of the same molecule?
**A.** The IC50 was 1 to 5 nM.

**Q.** What about the IC50 (BTK C481S) of the same molecule?
**A.** The IC50 was 1 to 5 nM.

**Q.** Which results are given for COc1ccc(F)cc1C(=O)NCc1ccc(-c2ncc(-c3cn4ccnc4cn3)c3[nH]nc(N)c23)cc1 [Example 50, N-(4-(3-amino-7-(imidazo[1,2-a]pyrazin-6-yl)-1H-pyrazolo[4,3-c]pyridin-4-yl)benzyl)-5-fluoro-2-methoxybenzamide]?
**A.** IC50 (ITK): > 500 nM; IC50 (TEC): 5 to 50 nM; IC50 (EGFR): 50 to 500 nM; IC50 (BTK T474I): 50 to 500 nM; IC50 (BTK kinase): 1 to 5 nM; IC50 (BTK C481S): 1 to 5 nM

**Q.** How did the IC50 (ITK) turn out when COc1ccc(F)cc1C(=O)NCc1ccc(-c2ncc(-c3ccc4nccn4n3)c3[nH]nc(N)c23)cc1 [Example 51, N-(4-(3-amino-7-(imidazo[1,2-b]pyridazin-6-yl)-1H-pyrazolo[4,3-c]pyridin-4-yl)benzyl)-5-fluoro-2-methoxybenzamide] was run?
**A.** Its IC50 is greater than 500 nM.

**Q.** And the IC50 (TEC)?
**A.** The IC50 was 5 to 50 nM.

**Q.** What about the IC50 (EGFR) of the same molecule?
**A.** Its IC50 is 50 to 500 nM.

**Q.** What about the IC50 (BTK T474I) of the same molecule?
**A.** Its IC50 is 50 to 500 nM.

**Q.** What about the IC50 (BTK kinase) of the same molecule?
**A.** Its IC50 is 1 to 5 nM.

**Q.** What about the IC50 (BTK C481S) of the same molecule?
**A.** The IC50 was no more than 1 nM.

**Q.** Which results are given for COc1ccc(F)cc1C(=O)NCc1ccc(-c2ncc(-c3ccc(C(=O)N4CCOCC4)cn3)c3[nH]nc(N)c23)cc1 [Example 52, N-(4-(3-amino-7-(5-(morpholine-4-carbonyl)pyridin-2-yl)-1H-pyrazolo[4,3-c]pyridin-4-yl)benzyl)-5-fluoro-2-methoxybenzamide]?
**A.** IC50 (ITK): 50 to 500 nM; IC50 (TEC): 5 to 50 nM; IC50 (EGFR): 50 to 500 nM; IC50 (BTK T474I): 5 to 50 nM; IC50 (BTK kinase): ≤ 1 nM; IC50 (BTK C481S): ≤ 1 nM

**Q.** What does the source list for COc1ccc(F)cc1C(=O)NCc1ccc(-c2ncc(-c3ccc(C(=O)N4C[C@H](C)O[C@@H](C)C4)cn3)c3[nH]nc(N)c23)cc1 [Example 53, N-(4-(3-amino-7-(5-((2S,6S)-2,6-dimethylmorpholine-4-carbonyl)pyridin-2-yl)-1H-pyrazolo[4,3-c]pyridin-4-yl)benzyl)-5-fluoro-2-methoxybenzamide]?
**A.** IC50 (ITK): 50 to 500 nM; IC50 (TEC): 5 to 50 nM; IC50 (EGFR): 50 to 500 nM; IC50 (BTK T474I): 50 to 500 nM; IC50 (BTK kinase): 1 to 5 nM; IC50 (BTK C481S): 1 to 5 nM
